Measurements taken from patent US10765114B2, “4-amino-6-(pyridyl and 2-substitutedphenyl)-picolinates and 6-amino-2-(pyridyl and 2-substitutedphenyl)-pyrimidine-4-carboxylates and their use as herbicides” (Dow AgroSciences LLC, priority 2013, dated 2020).
Where two headings read alike, the source gives them in different places.

How the values were obtained:
[1] = test system: Key Grass and Sedge Weeds as well as Grass Crops; assay: Post-Emergent Test II (Table 6); assay type: in vivo; settings: post-emergence, 336 h, 14 days after application; for pest or weed control at 54.5 g/ha: 54.5 g ai/ha; for pest or weed control at 109 g/ha: 109 g ai/ha
Outline: (§1)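 Seedlings are raised 7-21 days in Metro-Mix 360 (pH 6.0-6.8) under greenhouse conditions, then sprayed at the first or second true leaf stage. Application is 187 L/ha, with serial rates down to 1/16× of the highest. Plants are subirrigated, and percent injury is rated visually after 14 days.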

[2] = test system: Key Broadleaf Weed and Crop Species; assay: Post-Emergent Test II (Table 5); assay type: in vivo; settings: post-emergence, 336 h; for pest or weed control at 54.5 g/ha: application rate 54.5 (kg ai/ha; footnote: g ai/ha); for pest or weed control at 109 g/ha: application rate 109 (kg ai/ha; footnote: g ai/ha)
Outline: as §1

[3] = DIGSA: crabgrass (Digitaria sanguinalis), read-out: Visual Growth Reduction (%) 14 Days After Application DIGSA
[4] = ECHSS, read-out: Visual Growth Reduction (%) 14 Days After Application ECHSS
[5] = ORYSS (crop), read-out: Visual Growth Reduction (%) 14 Days After Application ORYSS
[6] = SETFA: giant foxtail (Setaria faberi), read-out: Visual Growth Reduction (%) 14 Days After Application SETFA
[7] = SORVU: grain sorghum (Sorghum vulgare), read-out: Visual Growth Reduction (%) 14 Days After Application SORVU
[8] = TRZSS (crop), read-out: Visual Growth Reduction (%) 14 Days After Application TRZSS
[9] = ZEAMX: maize, corn (Zea mays), read-out: Visual Growth Reduction (%) 14 Days After Application ZEAMX
[10] = Abutilon theophrasti, ABUTH: velvetleaf (Abutilon theophrasti), read-out: Visual Growth Reduction (%) 14 Days After Application ABUTH
[11] = Amaranthus retroflexus, AMARE: redroot pigweed (Amaranthus retroflexus), read-out: Visual Growth Reduction (%) 14 Days After Application AMARE
[12] = Brassica napus, BRSSS: oilseed rape, canola (Brassica napus), read-out: Visual Growth Reduction (%) 14 Days After Application BRSSS
[13] = Chenopodium album, CHEAL: lambsquarters (Chenopodium album), read-out: Visual Growth Reduction (%) 14 Days After Application CHEAL
[14] = Euphorbia heterophylla, EPHHL: wild poinsettia (Euphorbia heterophylla), read-out: Visual Growth Reduction (%) 14 Days After Application EPHHL
[15] = Helianthus annuus, HELAN: sunflower (Helianthus annuus), read-out: Visual Growth Reduction (%) 14 Days After Application HELAN
[16] = Viola tricolor, VIOTR: wild pansy (Viola tricolor), read-out: Visual Growth Reduction (%) 14 Days After Application VIOTR

SMILES: COC(=O)c1nc(-c2ccc(Cl)c(F)c2SC)c(F)c(N)c1Cl [Compound 18]
- pest or weed control at 54.5 g/ha ([1]; CYPSS, read-out: Visual Growth Reduction (%) 14 Days After Application CYPSS): 95 to 100%
- pest or weed control at 54.5 g/ha [1, 3]: 0 to 29%
- pest or weed control at 109 g/ha [1, 3]: 0 to 29%
- pest or weed control at 54.5 g/ha [1, 4]: 0 to 29%
- pest or weed control at 109 g/ha [1, 4]: 0 to 29%
- pest or weed control at 54.5 g/ha [1, 5]: 0 to 29%
- pest or weed control at 109 g/ha [1, 5]: 0 to 29%
- pest or weed control at 54.5 g/ha [1, 6]: 0 to 29%
- pest or weed control at 109 g/ha [1, 6]: 0 to 29%
- pest or weed control at 54.5 g/ha [1, 7]: 0 to 29%
- pest or weed control at 109 g/ha [1, 7]: 0 to 29%
- pest or weed control at 54.5 g/ha [1, 8]: 0 to 29%
- pest or weed control at 109 g/ha [1, 8]: 0 to 29%
- pest or weed control at 54.5 g/ha [1, 9]: 0 to 29%
- pest or weed control at 109 g/ha [1, 9]: 0 to 29%
- pest or weed control at 54.5 g/ha [2, 10]: 60 to 74%
- pest or weed control at 109 g/ha [2, 10]: 60 to 74%
- pest or weed control at 54.5 g/ha [2, 11]: 75 to 84%
- pest or weed control at 109 g/ha [2, 11]: 95 to 100%
- pest or weed control at 54.5 g/ha [2, 12]: 0 to 29%
- pest or weed control at 109 g/ha [2, 12]: 0 to 29%
- pest or weed control at 54.5 g/ha [2, 13]: 85 to 94%
- pest or weed control at 109 g/ha [2, 13]: 85 to 94%
- pest or weed control at 54.5 g/ha [2, 14]: 0 to 29%
- pest or weed control at 109 g/ha [2, 14]: 0 to 29%
- pest or weed control at 54.5 g/ha [2, 15]: 75 to 84%
- pest or weed control at 109 g/ha [2, 15]: 75 to 84%
- pest or weed control at 54.5 g/ha [2, 16]: 0 to 29%
- pest or weed control at 109 g/ha [2, 16]: 0 to 29%
